Laboratory results from US20230064983A1 (priority 2020, published 2023).
Values joined by “and” are separate entries in the source; they are usually repeats but may differ in a detail not shown here. Equal values may be shown once.

What was measured:
Bub1 = molecular target: T1, Bub1 (Homo sapiens, UniProt O43683); assay: Bub1 high ATP kinase assay (TR-FRET); format: biochemical; conditions: Bub1 high ATP (2 mM) IC50, TR-FRET, 2 mM ATP; Table 3
T1 construct: catalytic domain of human Bub1 (amino acids 704-1085); His6 (N); made in house; host or cells: insect cells (Hi5)
Method in brief: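 Enzyme was His6-tagged human Bub1 catalytic domain (aa 704-1085) from Hi5 insect cells, typically about 200 ng/ml, with a biotinylated peptide substrate at high ATP. Reaction ran 60 min at 22 °C, then was stopped with EDTA. Phosphopeptide was detected by TR-FRET (anti-phosphoserine antibody, Eu-labelled anti-mouse IgG, streptavidin-XL665), read as the 665/620 nm emission ratio.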

[1] = molecular target: T2, EGFR with insertion SVD between D770 and N771 (mutEGFR D770_N771insSVD) (Homo sapiens, UniProt P00533, DUP768-770); assay: Exon20-Mutant-EGFR(D770_N771insSVD) kinase assay (TR-FRET); format: biochemical; conditions: 2 mM ATP, Table 2
T2 construct: amino acids R669 to A1210; made in house; host or cells: Sf9 insect cells (baculovirus)

[2] = molecular target: Ba/F3-EGFR-D770_N771insSVD cells (Homo sapiens, UniProt P00533, DUP768-770, cells depend on it); assay: Ba/F3 cell survival assay, EGFR D770_N771insSVD; format: cell-based; conditions: Cell Titer-Glo, 48 h, without IL-3; Table 4; read-out: BA/F3 (insSVD) IC50
Ba/F3-EGFR-WT cells = Ba/F3-EGFR-WT cells (Homo sapiens, UniProt P00533); assay: Ba/F3 cell survival assay, wild type EGFR; format: cell-based; conditions: Cell Titer-Glo, 48 h, with 10 ng/mL EGF; Table 4; read-out: BA/F3 (wild type) IC50
Sequence of Ba/F3-EGFR-WT cells (P00533 whole entry, looked up, change not shown): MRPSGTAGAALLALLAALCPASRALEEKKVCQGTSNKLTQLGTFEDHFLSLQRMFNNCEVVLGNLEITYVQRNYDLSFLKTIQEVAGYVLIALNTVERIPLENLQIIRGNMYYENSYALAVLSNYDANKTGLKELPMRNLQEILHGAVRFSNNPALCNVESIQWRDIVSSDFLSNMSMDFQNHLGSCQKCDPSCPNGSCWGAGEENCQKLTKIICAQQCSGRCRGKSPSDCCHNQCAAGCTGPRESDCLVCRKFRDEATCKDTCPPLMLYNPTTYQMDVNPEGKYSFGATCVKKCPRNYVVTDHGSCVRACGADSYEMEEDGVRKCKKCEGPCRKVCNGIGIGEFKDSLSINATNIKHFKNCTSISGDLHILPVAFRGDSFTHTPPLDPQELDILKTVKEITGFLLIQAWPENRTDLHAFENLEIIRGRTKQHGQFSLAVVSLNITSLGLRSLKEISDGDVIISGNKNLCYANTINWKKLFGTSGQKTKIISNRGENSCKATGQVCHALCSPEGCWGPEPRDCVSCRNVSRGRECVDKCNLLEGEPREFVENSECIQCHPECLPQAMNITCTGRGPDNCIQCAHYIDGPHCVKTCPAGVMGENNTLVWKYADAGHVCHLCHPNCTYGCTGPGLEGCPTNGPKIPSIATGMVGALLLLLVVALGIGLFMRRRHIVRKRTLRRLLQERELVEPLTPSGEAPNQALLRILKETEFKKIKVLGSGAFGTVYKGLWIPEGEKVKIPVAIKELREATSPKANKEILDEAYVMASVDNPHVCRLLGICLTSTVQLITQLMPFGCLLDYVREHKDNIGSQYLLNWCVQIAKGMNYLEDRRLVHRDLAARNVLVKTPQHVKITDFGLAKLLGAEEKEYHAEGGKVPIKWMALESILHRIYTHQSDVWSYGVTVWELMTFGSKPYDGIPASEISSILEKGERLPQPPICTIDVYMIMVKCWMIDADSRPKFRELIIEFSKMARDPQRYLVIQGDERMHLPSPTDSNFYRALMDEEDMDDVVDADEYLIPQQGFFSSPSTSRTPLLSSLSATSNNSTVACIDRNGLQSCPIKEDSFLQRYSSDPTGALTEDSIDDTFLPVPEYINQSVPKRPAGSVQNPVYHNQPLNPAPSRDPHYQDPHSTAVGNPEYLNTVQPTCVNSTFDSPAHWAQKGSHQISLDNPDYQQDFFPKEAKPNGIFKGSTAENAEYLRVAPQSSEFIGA

T2 sequence (P00533 other isoform, or with tags, fused parts or gaps DUP768-770): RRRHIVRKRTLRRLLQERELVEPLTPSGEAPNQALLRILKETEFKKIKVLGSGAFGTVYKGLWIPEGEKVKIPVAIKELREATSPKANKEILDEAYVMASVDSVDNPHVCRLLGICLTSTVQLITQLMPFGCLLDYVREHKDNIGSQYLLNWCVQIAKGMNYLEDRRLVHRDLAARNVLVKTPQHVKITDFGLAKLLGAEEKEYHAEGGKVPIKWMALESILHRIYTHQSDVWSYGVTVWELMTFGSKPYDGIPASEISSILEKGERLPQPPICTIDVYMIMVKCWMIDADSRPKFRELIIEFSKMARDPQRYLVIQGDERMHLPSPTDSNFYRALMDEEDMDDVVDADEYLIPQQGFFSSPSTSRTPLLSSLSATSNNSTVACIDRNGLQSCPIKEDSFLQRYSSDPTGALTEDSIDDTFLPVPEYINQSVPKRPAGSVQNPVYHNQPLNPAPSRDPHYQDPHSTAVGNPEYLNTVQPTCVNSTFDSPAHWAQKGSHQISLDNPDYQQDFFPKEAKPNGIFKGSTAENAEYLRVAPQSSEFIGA
T1 sequence (O43683 704-1085): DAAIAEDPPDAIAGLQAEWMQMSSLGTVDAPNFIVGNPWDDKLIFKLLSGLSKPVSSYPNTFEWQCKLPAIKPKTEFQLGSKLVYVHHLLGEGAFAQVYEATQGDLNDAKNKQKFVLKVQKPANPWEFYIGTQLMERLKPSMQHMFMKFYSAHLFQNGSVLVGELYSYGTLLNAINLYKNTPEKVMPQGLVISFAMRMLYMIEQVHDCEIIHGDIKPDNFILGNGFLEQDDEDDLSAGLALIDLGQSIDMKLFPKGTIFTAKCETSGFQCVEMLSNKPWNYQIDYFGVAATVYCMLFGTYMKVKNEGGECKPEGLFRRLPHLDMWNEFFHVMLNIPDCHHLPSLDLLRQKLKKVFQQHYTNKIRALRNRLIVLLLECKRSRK
Sequence of Ba/F3-EGFR-D770_N771insSVD cells (P00533 with tags, fused parts or gaps DUP768-770): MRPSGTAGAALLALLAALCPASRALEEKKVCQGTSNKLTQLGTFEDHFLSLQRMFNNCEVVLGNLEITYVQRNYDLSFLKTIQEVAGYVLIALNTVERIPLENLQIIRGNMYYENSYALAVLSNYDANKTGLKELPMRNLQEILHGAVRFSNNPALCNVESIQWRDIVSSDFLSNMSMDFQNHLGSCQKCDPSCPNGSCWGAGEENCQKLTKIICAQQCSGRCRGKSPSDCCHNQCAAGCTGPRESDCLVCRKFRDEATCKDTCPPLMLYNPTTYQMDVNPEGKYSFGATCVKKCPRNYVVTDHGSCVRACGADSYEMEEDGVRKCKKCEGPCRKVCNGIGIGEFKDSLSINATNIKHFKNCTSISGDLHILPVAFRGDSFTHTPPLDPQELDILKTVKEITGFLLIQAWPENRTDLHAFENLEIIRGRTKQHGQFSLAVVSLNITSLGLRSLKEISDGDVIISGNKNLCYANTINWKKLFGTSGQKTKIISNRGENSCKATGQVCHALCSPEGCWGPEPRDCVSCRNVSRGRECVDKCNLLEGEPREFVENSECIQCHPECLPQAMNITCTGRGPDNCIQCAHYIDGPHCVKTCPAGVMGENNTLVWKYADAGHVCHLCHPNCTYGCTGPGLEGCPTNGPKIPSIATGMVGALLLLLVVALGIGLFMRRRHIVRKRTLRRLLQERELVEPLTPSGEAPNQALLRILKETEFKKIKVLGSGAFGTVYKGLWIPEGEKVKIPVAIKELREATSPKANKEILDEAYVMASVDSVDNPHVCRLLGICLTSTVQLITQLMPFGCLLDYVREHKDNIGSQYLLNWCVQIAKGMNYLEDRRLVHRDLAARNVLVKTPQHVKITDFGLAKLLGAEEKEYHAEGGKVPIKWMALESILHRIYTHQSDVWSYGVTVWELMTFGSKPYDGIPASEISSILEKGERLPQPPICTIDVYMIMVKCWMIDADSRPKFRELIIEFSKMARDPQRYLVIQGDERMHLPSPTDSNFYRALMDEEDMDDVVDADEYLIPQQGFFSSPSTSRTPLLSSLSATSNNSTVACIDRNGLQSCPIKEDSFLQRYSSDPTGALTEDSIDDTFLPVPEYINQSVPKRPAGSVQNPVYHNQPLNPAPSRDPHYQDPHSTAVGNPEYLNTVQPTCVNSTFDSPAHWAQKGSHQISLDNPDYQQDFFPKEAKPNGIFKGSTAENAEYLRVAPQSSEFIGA

Row | IC50 (Bub1) | mutEGFR (D770_N771insSVD) kinase assay IC50 [1] | SMILES | GI50 [2] | GI50 (Ba/F3-EGFR-WT cells)
1 | 5390 nM | 0.0854 nM | COc1c(Cl)cccc1Nc1c(-c2ccncc2OC[C@@H]2CCCO2)[nH]c2c1C(=O)NC(C)C2 (mixture of isomers) [Example 3, 3-(3-chloro-2-methoxyanilino)-6-methyl-2-(3-{[(2S)-oxolan-2-yl]methoxy}pyridin-4-yl)-1,5,6,7-tetrahydro-4H-pyrrolo[3,2-c]pyridin-4-one] | 28.5 nM | 328 nM
2 | > 20000 nM | 0.849 nM | COc1c(Cl)cccc1Nc1c(-c2ccncc2OCC2CCCCN2C)[nH]c2c1C(=O)N[C@H](C)C2 (mixture of isomers) [Example 83, (6R)-3-(3-chloro-2-methoxy-anilino)-6-methyl-2-{3-[(1-methyl-2-piperidyl)methoxy]-4-pyridyl}-1,5,6,7-tetrahydropyrrolo[3,2-c]pyridin-4-one] | 24.6 nM | 669 nM
3 | > 20000 nM | 1.17 nM | COc1c(Cl)cccc1Nc1c(-c2ccncc2OCC2CCCCO2)[nH]c2c1C(=O)NCC2C (single isomer, unassigned) [Example 46, 3-(3-chloro-2-methoxy-anilino)-7-methyl-2-[3-(tetrahydropyran-2-ylmethoxy)-4-pyridyl]-1,5,6,7-tetrahydropyrrolo[3,2-c]pyridin-4-one] | 125 nM | 2750 nM
4 | > 20000 nM | 0.418 nM | COCC(C)Oc1cnccc1-c1[nH]c2c(c1Nc1cccc(Cl)c1OC)C(=O)N[C@H](C)C2 (single isomer, unassigned) [Example 43] | 219 nM | 1860 nM
5 | 12800 nM and 9720 nM and > 20000 nM | 0.246 nM | COc1c(F)cccc1Nc1c(-c2ccncc2OC[C@@H]2CCCO2)[nH]c2c1C(=O)NC(C)C2 (mixture of isomers) [Example 8, 3-(3-fluoro-2-methoxyanilino)-6-methyl-2-(3-{[(2S)-oxolan-2-yl]methoxy}pyridin-4-yl)-1,5,6,7-tetrahydro-4H-pyrrolo[3,2-c]pyridin-4-one] | 73.3 nM | 623 nM
6 | > 20000 nM | 0.796 nM | COc1c(Cl)cccc1Nc1c(-c2ccncc2OCC2(C)CCO2)[nH]c2c1C(=O)NCC2CCO (single isomer, unassigned) [Example 23, 3-(3-chloro-2-methoxyanilino)-7-(2-hydroxyethyl)-2-{3-[(2-methyloxetan-2-yl)methoxy]pyridin-4-yl}-1,5,6,7-tetrahydro-4H-pyrrolo[3,2-c]pyridin-4-one] | 920 nM | 7380 nM
7 | 3110 nM | 0.242 nM | COc1c(Cl)cccc1Nc1c(-c2ccncc2OCC2COCCO2)[nH]c2c1C(=O)N[C@H](C)C2 (single isomer, unassigned) [Example 26] | 63.1 nM | 587 nM
8 | 6450 nM | 0.195 nM | COc1c(Cl)cccc1Nc1c(-c2ccncc2OCC2CCCCO2)[nH]c2c1C(=O)NCC2C (stereo not shown) [Example 44, 3-(3-chloro-2-methoxy-anilino)-7-methyl-2-[3-(tetrahydropyran-2-ylmethoxy)-4-pyridyl]-1,5,6,7-tetrahydropyrrolo[3,2-c]pyridin-4-one] | 40.5 nM | 594 nM
9 | 14500 nM | 0.282 nM | COc1c(Cl)cccc1Nc1c(-c2ccncc2OCC2COCCO2)[nH]c2c1C(=O)N[C@@H]1CCC[C@H]21 (single isomer, unassigned) [Example 53] | 34.9 nM | 712 nM
10 | > 20000 nM | 0.553 nM | COc1c(Cl)cccc1Nc1c(-c2ccncc2OC[C@@H]2CCCO2)[nH]c2c1C(=O)NCC2CC=C(F)F (single isomer, unassigned) [Example 101] | 42.1 nM | 603 nM
